Test results taken from US12427142B2, “Combination comprising alpelisib and 6-(2,4-dichlorophenyl)-5-[4-[(3S)-1-(3-fluoropropyl)pyrrolidin-3-yl[oxyphenyl]-8,9-dihydro-7H-benzo[7]annulene-2-carboxylic acid” (Sanofi, priority 2020, dated 2025).
Where two headings read alike, the source gives them in different places.

Key:
[1] = system: MCF7-Y537S human breast cancer cell line xenograft; details: experiment 1, compound (1) 20 mg/kg BID, alpelisib 25 mg/kg QD; for Tumor volume changes from baseline, Median: PO; for Median % of regressions on day 22 / ΔT/ΔC in % at day 22 / Regressions Complete / Regressions Partial: PO days 0 to 22; for Regressions Complete / Regressions Partial: animals/group; for Anti-tumor effect on tumor growth (in words) / Biological Interpretation: day 22
Protocol: In the present study, the anti-tumor efficacy of 6-(2,4-dichlorophenyl)-5-[4-[(3S)-1-(3-fluoropropyl)pyrrolidin-3-yl]oxyphenyl]-8,9-dihydro-7H-benzo[7]annulene-2-carboxylic acid (“compound (1)”), combined with alpha-specific phosphoinositide 3-kinase (PI3K) inhibitor alpelisib, was investigated after 22 day treatment against a subcutaneous MCF7-Y537S human breast cancer cell line xenograft in female nude mice.
The treated groups included compound (1) at 20 mg/kg alone, alpelisib at 25 mg/kg alone, and the combination of compound (1) and alpelisib at the same dose and regime.
Compound (1) was orally dosed twice a day (BID) and alpelisib was orally dosed once a day (QD) for 22 days. Anti-tumor efficacy was evaluated by tumor volume measurement.
Female BALB/c nude mice were obtained from Shanghai Sino-British SIPPR/BK Laboratory Animal Co., LTD (Shanghai, CHINA). Animals were allowed to acclimate for at least four days before the study enrollment. Mice were 6 to 8 weeks old and weighed between 18 and 24 grams at the beginning of the treatments. These animals were housed under conditions outlined in the guidelines approved by the Institutional Animal Care and Use Committee (IACUC) of WuXi AppTec following the guidance of the Association for Assessment and Accreditation of Laboratory Animal Care (AAALAC).
Parental MCF7 cells were obtained from the American Type Culture Collection (ATCC® HTB-22™). MCF7-Y537S (ESR1) cell line was MCF7 cells expressing the ER.Y537S variant that was generated by Sanofi Biology Discovery Group. Y537S mutation was introduced in ESR1 construct (GenBank NM_000125.3) by site directed mutagenesis (Toy W. et al., Cancer Discovery, 2017, 7, 277-287). The construct was transfected in MCF7 cells which were selected for their growth in absence of estradiol. MCF-Y537S is an ESR1 mutation that confers estrogen-independent activity to ERα (Estrogen Receptor alpha) and contributes to endocrine resistant disease (Robinson D. R. et al., Nat Genet., 2013, 45 (12), 1446-1451). The cells were grown in Eagle's Minimum Essential Medium (EMEM) supplemented with 10% fetal bovine serum (FBS), human Insulin, in 5% CO2 at 37° C. The cells were harvested in 0.25% Trypsin EDTA and washed by Phosphate Buffered Saline (PBS) and re-suspended in PBS with 75% Matrigel. The cells (20×10^6 cells/per mouse) were subcutaneously (SC) implanted into the right flank of female nude mice.
When the MCF7-Y537S tumors were established, the tumors were reserved as tumor stocks for fragment implantation. The tumors were serially propagated through fragment tissue transplantation subcutaneously. The fragment tumor tissues were subcutaneously implanted into the right flank of female nude mice. 28 mice were assigned in this experiment.
Alpelisib (commercially available, marketed under the tradename PIQRAY®) was formulated in 100% of HPMC (hydroxypropyl-methylcellulose)/TWEEN80 0.5/0.1% in water. Compound (1) was prepared in 5% Solutol HS15 (purchased from Sigma) at pH 3.0.
Dose volume for compound (1) and alpelisib for oral administration: 10 ml/kg by oral gavage.
Doses: compound (1) at 20 mg/kg and alpelisib at 25 mg/kg in the above volume.
The animals required for experiment (plus extra) were pooled and implanted with MCF7-Y537S tumor fragment tissues. […] Treatments of compound (1) and alpelisib were initiated on day 0. Compound (1) was orally administered at 20 mg/kg BID (8 hours apart) and alpelisib was orally administered at 25 mg/kg QD, for 22 days. Animal body weight was assessed daily.
The dosages are expressed in mg/kg and based on daily body weight per animal. Vehicle treated animals were used as controls. Mice were checked daily for adverse clinical reactions. Individual mice were weighed daily until the end of the experiment.

[2] = system: MCF7-Y537S human breast cancer cell line xenograft; type: in vivo; details: experiment 2, compound (1) 10 mg/kg BID, alpelisib 25 mg/kg QD; for Tumor volume changes from baseline, Median: PO; for Median % of regressions on day 28 / ΔT/ΔC in % at day 28 / Regressions Complete / Regressions Partial: PO days 0 to 28; for Regressions Complete / Regressions Partial: animals/group; for Anti-tumor effect on tumor growth (in words) / Biological Interpretation: day 28

SMILES	Tumor volume changes from baseline, Median ([1]; Day 4)	Tumor volume changes from baseline, Median ([1]; Day 8)	Tumor volume changes from baseline, Median ([1]; Day 11)	Tumor volume changes from baseline, Median ([1]; Day 15)	Tumor volume changes from baseline, Median ([1]; Day 18)	Tumor volume changes from baseline, Median ([1]; Day 22)	Median % of regressions on day 22 [1]	ΔT/ΔC in % at day 22 [1]	Regressions Complete [1]	Regressions Partial [1]	Anti-tumor effect on tumor growth (in words) [1]	Biological Interpretation [1]	Tumor volume changes from baseline, Median ([2]; Day 3)	Tumor volume changes from baseline, Median ([2]; Day 7)	Tumor volume changes from baseline, Median ([2]; Day 10)	Tumor volume changes from baseline, Median ([2]; Day 14)	Tumor volume changes from baseline, Median ([2]; Day 17)	Tumor volume changes from baseline, Median ([2]; Day 21)	Tumor volume changes from baseline, Median ([2]; Day 24)	Tumor volume changes from baseline, Median ([2]; Day 28)	also measured
Cc1nc(NC(=O)N2CCC[C@H]2C(N)=O)sc1-c1ccnc(C(C)(C)C(F)(F)F)c1 [Alpelisib]	68.0 mm^3	102.0 mm^3	163.0 mm^3	262.0 mm^3	315.0 mm^3	491.0 mm^3	0%	46%	0/7	0/7	did not induce statistically significant anti-tumor efficacy	Inactive	7.0 mm^3	−9.0 mm^3	−17.0 mm^3	44.0 mm^3	121.5 mm^3	211.0 mm^3	245.5 mm^3	299.5 mm^3	Body weight loss ([2]; 28 days): no significant body weight loss; Tolerability ([2]; 28 days): well tolerated; Median % of regressions on day 28 [2]: 0%; ΔT/ΔC in % at day 28 [2]: 66%; Regressions Complete [2]: 0/8; Regressions Partial [2]: 0/8; Anti-tumor effect on tumor growth (in words) [2]: statistically significant anti-tumor efficacy; Biological Interpretation [2]: inactive
O=C(O)c1ccc2c(c1)CCCC(c1ccc(Cl)cc1Cl)=C2c1ccc(O[C@H]2CCN(CCCF)C2)cc1 [Compound (1), 6-(2,4-dichlorophenyl)-5-[4-[(3S)-1-(3-fluoropropyl)pyrrolidin-3-yl]oxyphenyl]-8,9-dihydro-7H-benzo[7]annulene-2-carboxylic acid]	43.0 mm^3	121.0 mm^3	214.0 mm^3	360.0 mm^3	392.0 mm^3	501.0 mm^3	0%	47%	0/7	0/7	no statistically significant anti-tumor effect	Inactive	9.0 mm^3	36.0 mm^3	48.0 mm^3	62.5 mm^3	92.0 mm^3	167.5 mm^3	189.5 mm^3	166.5 mm^3	Unscheduled death (Day of death) ([1]; PO for 22 days, deaths/animals): 0/7; Median % of regressions on day 28 [2]: 0%; ΔT/ΔC in % at day 28 [2]: 37%; Regressions Complete [2]: 0/8; Regressions Partial [2]: 0/8; Unscheduled death (Day of death) ([2]; PO for 28 days, deaths/animals): 0/8; Anti-tumor effect on tumor growth (in words) [2]: statistically significant anti-tumor effect; Biological Interpretation [2]: active
